The nature of series [1]: Rat plasma precipitation assay. The note with it: for Threshold concentration for precipitation: Wistar rat heparin plasma 1:1 with compound in saline/PBS, absorbance difference OD362 ≥ 0.05, n = 1. As for the experimental part:
Whole blood was obtained from WISTAR rats and collected in 1.2 ml heparin tubes for the preparation of heparin plasma. The tubes were then centrifuged for 5 min at 5,200g at room temperature to isolate the plasma supernatant. Test compounds were received as powder and solubilized at various concentrations in 0.9% aqueous sodium chloride solution and adjusted for pH with phosphate-buffered saline (PBS). The assay was conducted in 384-well plates. Rat plasma (10 µl) was added to 10 µl of the various compound solutions. A total of 10 µl of vehicle (0.9% aqueous sodium chloride solution, PBS) added to the plasma was used as a negative control. The absorption was measured at 362 nm. Raw data were obtained as absorbance data. The difference between the absorbance of the sample and the mean absorbance of the vehicle was calculated. The minimum effect concentration was defined as the lowest concentration giving an absorbance difference of OD362 ≥ 0.05.

In a further series the target is T1, Adenosine A1 respetor (Homo sapiens, UniProt P30542).
T1 construct: purchased Eurofins CEREP SA
T1 sequence (P30542 1-326): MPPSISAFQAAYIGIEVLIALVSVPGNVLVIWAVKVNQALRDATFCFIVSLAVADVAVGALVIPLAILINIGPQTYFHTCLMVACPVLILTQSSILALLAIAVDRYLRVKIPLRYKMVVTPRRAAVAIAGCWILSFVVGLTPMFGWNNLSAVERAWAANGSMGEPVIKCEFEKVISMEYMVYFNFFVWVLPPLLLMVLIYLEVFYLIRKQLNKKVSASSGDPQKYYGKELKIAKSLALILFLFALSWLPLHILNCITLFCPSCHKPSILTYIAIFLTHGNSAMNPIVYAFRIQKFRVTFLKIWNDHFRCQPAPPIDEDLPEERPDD
The experiment in a line: Off-target screening (CEREP). Type of series: binding. The note with it: read-out: percent inhibition. The procedure:
(§1) Supplementary Table 1 │ Off-target activity screening f or MCP compou nds […]
(§2) The assays given in the table above were conducted at Eurofins CEREP S A (Celle-Lévescault, France) and were run as single point measurements in duplicates in the presence of 10 µ M of the test compound and reported as percent inhibition of the radioligand signal or control enzymatic activity. n.d., not

Another series deals with T2, Adenosine A3 respetor (Homo sapiens, UniProt P0DMS8).
T2 construct: purchased Eurofins CEREP SA
T2 sequence (P0DMS8 1-318): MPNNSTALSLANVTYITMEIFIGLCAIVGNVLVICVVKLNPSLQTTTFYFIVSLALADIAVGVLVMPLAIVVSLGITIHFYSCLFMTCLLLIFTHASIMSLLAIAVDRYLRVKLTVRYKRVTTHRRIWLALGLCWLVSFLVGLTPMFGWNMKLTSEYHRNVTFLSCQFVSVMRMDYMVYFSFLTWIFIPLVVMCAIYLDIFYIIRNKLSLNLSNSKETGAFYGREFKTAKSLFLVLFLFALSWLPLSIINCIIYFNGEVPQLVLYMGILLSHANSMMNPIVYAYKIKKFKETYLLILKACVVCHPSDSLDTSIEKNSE
The experiment in a line: Off-target screening (CEREP). The note with it: read-out: percent inhibition. Type of series: binding. The procedure:
as §1, §2

The target of a further series is T3, Alpha1A-adrenoreceptor (Homo sapiens, UniProt P35348).
T3 construct: purchased Eurofins CEREP SA
T3 sequence (P35348 1-466): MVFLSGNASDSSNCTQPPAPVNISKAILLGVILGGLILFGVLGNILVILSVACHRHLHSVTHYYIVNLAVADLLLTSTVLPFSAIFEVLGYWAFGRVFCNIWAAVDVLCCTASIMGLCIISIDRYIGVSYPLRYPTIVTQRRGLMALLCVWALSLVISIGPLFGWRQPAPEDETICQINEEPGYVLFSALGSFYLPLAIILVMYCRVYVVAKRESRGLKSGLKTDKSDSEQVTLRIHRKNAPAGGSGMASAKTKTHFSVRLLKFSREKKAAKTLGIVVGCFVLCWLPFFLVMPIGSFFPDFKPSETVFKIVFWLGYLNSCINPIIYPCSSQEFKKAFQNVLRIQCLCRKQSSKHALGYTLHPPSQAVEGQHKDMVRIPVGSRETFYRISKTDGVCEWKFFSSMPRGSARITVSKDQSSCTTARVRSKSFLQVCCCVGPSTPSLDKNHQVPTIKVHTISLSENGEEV
The series can be described thus: Off-target screening (CEREP). Type of series: binding. The note with it: read-out: percent inhibition. As for the experimental part:
as §1, §2

Series [2] deals with T4, Angiotensin II receptor 1 (Homo sapiens, UniProt P30556).
T4 construct: purchased Eurofins CEREP SA
T4 sequence (P30556 1-359): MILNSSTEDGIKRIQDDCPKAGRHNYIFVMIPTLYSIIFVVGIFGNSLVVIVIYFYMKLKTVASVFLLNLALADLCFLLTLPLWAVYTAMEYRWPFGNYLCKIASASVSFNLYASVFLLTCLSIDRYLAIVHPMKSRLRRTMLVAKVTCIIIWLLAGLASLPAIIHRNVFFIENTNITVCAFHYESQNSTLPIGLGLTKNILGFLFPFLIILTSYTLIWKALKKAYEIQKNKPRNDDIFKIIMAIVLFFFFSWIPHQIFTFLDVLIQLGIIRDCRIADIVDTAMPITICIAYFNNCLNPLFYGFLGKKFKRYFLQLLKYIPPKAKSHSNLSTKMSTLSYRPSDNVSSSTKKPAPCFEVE
The series can be described thus: Off-target screening (CEREP). Type of series: binding. The note with it: read-out: percent inhibition. The procedure: as §1, §2

The target in a further series is T5, Beta2-adrenoreceptor (Homo sapiens, UniProt P07550).
T5 construct: purchased Eurofins CEREP SA
The experiment in a line: Off-target screening (CEREP). To be noted: read-out: percent inhibition. The series is classed as binding. The procedure:
as §1, §2

The target of the next series is T6, Dopamine D1 receptor (Homo sapiens, UniProt P21728).
T6 construct: purchased Eurofins CEREP SA
The series can be described thus: Off-target screening (CEREP). The series is classed as binding. To be noted: read-out: percent inhibition. As for the experimental part: as §1, §2

The target of the next series is T7, Histamine H1 receptor (Homo sapiens, UniProt P35367).
T7 construct: purchased Eurofins CEREP SA
The series can be described thus: Off-target screening (CEREP). The series is classed as binding. To be noted: read-out: percent inhibition. The procedure:
as §1, §2

The target in another series is T8, Histamine H2 receptor (Homo sapiens, UniProt P25021).
T8 construct: purchased Eurofins CEREP SA
The series can be described thus: Off-target screening (CEREP). The note with it: read-out: percent inhibition. The series is classed as binding. As for the experimental part: as §1, §2

The target of another series is T9, Histamine H3 receptor (Homo sapiens, UniProt Q9Y5N1).
T9 construct: purchased Eurofins CEREP SA
The series can be described thus: Off-target screening (CEREP). To be noted: read-out: percent inhibition. Type of series: binding. As for the experimental part: as §1, §2

Series [3] addresses T10, Norepinephrine transporter (Homo sapiens, UniProt P23975).
T10 construct: purchased Eurofins CEREP SA
The experiment in a line: Off-target screening (CEREP). Type of series: binding. To be noted: read-out: percent inhibition. As for the experimental part: as §1, §2

Structures are written as SMILES. Values joined by “and” are separate entries in the source; they are usually repeats but may differ in a detail not shown here. Identical values can stand only once. Like-named read-outs stand apart in the source and are kept apart here.

The source of these data is PMC10794144, “A novel antibiotic class targeting the lipopolysaccharide transporter” (Nature, 2024).

T10 sequence (P23975 whole entry): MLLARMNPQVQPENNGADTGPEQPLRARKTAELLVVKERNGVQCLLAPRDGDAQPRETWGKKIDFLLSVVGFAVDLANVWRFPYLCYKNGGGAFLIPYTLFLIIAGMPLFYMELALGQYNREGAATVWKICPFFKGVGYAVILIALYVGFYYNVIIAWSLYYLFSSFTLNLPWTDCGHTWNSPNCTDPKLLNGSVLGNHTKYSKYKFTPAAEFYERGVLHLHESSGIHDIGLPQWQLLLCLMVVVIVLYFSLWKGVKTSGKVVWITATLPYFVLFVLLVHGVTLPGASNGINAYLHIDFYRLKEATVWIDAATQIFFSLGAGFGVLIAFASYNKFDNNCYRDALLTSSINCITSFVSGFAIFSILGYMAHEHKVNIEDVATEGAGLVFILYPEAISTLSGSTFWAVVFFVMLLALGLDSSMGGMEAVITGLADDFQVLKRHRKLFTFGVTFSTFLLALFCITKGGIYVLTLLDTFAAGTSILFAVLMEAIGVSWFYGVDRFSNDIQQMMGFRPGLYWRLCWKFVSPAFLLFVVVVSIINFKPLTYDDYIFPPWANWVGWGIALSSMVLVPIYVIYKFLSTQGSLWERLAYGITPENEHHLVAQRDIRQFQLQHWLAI
T7 sequence (P35367 whole entry): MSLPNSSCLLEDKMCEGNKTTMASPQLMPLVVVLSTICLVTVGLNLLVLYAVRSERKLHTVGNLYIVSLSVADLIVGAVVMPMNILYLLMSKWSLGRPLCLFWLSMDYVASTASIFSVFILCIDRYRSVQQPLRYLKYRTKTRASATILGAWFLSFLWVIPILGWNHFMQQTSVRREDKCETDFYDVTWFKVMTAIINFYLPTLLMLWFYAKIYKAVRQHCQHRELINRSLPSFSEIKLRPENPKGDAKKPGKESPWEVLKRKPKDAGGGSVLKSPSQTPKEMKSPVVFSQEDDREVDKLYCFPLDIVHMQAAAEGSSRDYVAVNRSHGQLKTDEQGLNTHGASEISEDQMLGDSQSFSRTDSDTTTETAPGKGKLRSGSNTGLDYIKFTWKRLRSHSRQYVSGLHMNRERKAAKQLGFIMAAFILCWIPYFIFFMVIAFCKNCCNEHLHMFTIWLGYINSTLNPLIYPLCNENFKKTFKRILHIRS
T9 sequence (Q9Y5N1 whole entry): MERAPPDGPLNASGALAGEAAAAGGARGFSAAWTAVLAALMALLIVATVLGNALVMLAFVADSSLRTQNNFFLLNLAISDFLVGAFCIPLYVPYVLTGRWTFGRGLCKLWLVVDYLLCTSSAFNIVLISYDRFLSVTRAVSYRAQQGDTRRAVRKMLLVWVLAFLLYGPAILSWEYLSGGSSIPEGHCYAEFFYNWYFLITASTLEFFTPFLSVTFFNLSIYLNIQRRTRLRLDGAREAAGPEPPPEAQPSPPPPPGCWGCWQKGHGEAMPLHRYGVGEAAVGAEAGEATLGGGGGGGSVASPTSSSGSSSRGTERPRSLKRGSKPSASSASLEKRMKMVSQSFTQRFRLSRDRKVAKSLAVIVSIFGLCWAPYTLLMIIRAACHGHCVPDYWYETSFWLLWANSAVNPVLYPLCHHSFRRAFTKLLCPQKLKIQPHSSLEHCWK
T6 sequence (P21728 whole entry): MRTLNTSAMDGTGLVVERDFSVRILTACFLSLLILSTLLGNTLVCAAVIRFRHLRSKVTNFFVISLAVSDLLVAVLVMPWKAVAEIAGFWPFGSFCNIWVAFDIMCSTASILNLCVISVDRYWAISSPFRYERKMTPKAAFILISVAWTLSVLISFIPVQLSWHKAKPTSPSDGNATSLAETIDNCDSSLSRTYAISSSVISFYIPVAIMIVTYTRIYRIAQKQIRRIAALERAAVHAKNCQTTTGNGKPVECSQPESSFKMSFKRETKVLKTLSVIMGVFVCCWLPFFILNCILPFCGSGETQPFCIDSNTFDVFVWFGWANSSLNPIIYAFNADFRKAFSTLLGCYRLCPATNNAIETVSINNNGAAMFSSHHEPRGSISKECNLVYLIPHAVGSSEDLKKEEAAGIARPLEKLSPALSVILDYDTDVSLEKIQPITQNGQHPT
T8 sequence (P25021 whole entry): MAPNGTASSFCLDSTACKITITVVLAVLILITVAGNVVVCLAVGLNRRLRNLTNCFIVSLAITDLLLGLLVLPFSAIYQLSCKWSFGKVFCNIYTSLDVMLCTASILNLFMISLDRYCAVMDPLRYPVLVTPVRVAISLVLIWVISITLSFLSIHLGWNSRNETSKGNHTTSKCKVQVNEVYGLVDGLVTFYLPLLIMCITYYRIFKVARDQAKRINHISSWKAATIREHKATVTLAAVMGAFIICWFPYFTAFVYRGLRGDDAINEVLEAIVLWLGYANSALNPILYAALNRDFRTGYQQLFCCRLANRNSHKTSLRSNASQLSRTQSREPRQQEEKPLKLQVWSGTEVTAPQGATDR
T5 sequence (P07550 whole entry): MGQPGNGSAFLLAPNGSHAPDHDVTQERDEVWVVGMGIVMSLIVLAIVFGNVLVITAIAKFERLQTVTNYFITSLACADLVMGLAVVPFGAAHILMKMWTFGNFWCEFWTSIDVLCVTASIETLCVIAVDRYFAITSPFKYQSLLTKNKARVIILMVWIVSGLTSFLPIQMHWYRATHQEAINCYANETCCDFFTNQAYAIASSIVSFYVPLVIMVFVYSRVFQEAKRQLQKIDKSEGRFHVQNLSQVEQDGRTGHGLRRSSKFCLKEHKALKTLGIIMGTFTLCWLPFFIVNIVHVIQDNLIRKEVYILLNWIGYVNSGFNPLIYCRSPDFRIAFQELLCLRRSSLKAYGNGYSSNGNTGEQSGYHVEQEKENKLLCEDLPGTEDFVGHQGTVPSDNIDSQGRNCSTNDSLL

For orientation: inhibition means the relative decrease from the control value, in per cent. On to `CN1C(=O)[C@H](CCCCN)NC(=O)[C@H](CCCN)NCc2cccnc2Sc2c(Cl)ccc(-c3ccc(C(=O)O)cc3)c2CNC(=O)[C@@H]1Cc1c[nH]c2ccccc12` [RO7202110], for which the “Threshold concentration for precipitation” value in series [1] amounted to 0.39 mg/mL. Moreover, the inhibition at 10 µM on Adenosine A1 respetor (10 µM, duplicates) is 1%; at Adenosine A3 respetor (10 µM, duplicates), 9%; at Alpha1A-adrenoreceptor (10 µM, duplicates), 7%; in series [2] (10 µM, duplicates), 14%; at Beta2-adrenoreceptor (10 µM, duplicates), -11%; on Dopamine D1 receptor (10 µM, duplicates) it was -7%. Also, the inhibition at 10 µM on Histamine H1 receptor (10 µM, duplicates) was -3%; at Histamine H2 receptor (10 µM, duplicates) it was 3%; on Histamine H3 receptor (10 µM, duplicates) it was 5%; in [3] (10 µM, duplicates), 14%.
In the case of `CN1C(=O)[C@H](CCCN)NC(=O)[C@H](CCCN)NCc2ccccc2Sc2ccccc2CNC(=O)[C@@H]1Cc1c[nH]c2ccccc12` [RO7036668], the inhibition at 10 µM on Adenosine A1 respetor (10 µM, duplicates) came to 1%; at Adenosine A3 respetor (10 µM, duplicates) it was 32%; on Alpha1A-adrenoreceptor (10 µM, duplicates), 15%; in series [2] (10 µM, duplicates) it was 14%; on Beta2-adrenoreceptor (10 µM, duplicates), 3%; at Dopamine D1 receptor (10 µM, duplicates), 27%. The inhibition at 10 µM on Histamine H1 receptor (10 µM, duplicates) turned out to be 16%; on Histamine H2 receptor (10 µM, duplicates), 12%; on Histamine H3 receptor (10 µM, duplicates), 12%; in series [3] (10 µM, duplicates), 43%.
As to `CN1C(=O)[C@H](CCCCN)NC(=O)[C@H](CCCN)NCc2cccnc2Sc2c(Cl)ccc(Cl)c2CNC(=O)[C@@H]1Cc1c[nH]c2ccccc12` [RO7075573], the “Threshold concentration for precipitation” value in [1] is 0.038 mg/mL and 0.0385 mg/mL. In [1] (rat plasma), the “Threshold concentration causing precipitation” value came to 52 µM. For the same compound, the inhibition at 10 µM at Adenosine A1 respetor was -10%; at Adenosine A3 respetor, 11%; at Alpha1A-adrenoreceptor it was 22%; in [2], -7%; on Beta2-adrenoreceptor, -7%; at Dopamine D1 receptor, 8%. The inhibition at 10 µM is 4% on Histamine H1 receptor, 11% at Histamine H2 receptor, -4% at Histamine H3 receptor and 1% in series [3].
`CN1C(=O)[C@H](CCCCN)NC(=O)[C@H](CCCN)NCc2cccnc2Sc2cccc(-c3ccc(C(=O)O)cc3)c2CNC(=O)[C@@H]1Cc1c[nH]c2ccccc12` [zosurabalpin]: the “Threshold concentration for precipitation” value in [1] was determined as 1.76 mg/mL. For the same compound, the inhibition at 10 µM at Adenosine A1 respetor was -7%; at Adenosine A3 respetor, 2%; on Alpha1A-adrenoreceptor, 7%; in series [2], 6%; at Beta2-adrenoreceptor, 6%; at Dopamine D1 receptor, -3%. Besides, the inhibition at 10 µM was -4% on Histamine H1 receptor, -2% at Histamine H2 receptor, 5% on Histamine H3 receptor and 12% in [3].
